Test results reported in PubChem BioAssay AID256 (DTP/NCI, 2004).
“And” between values parts separate entries of the source, which are not always exact repeats. Identical values can stand only once. Inconclusive results and toxic doses are left out.

Tested on: CD2F1 mice, L1210 leukemia ip, survival T/C
Assay: NCI In Vivo Anticancer Drug Screen. Data for tumor model L1210 Leukemia (intraperitoneal) in CD2F1 (CDF1) mice
Settings: higher = longer survival
Outline: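 Vehicle-treated tumor-bearing mice served as controls (C) for compound-treated mice (T). Reported figure is T divided by C.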

[1] = endpoint: mean survival time, dose: 100.0 mg/kg/injection, schedule: Q01DX009 (ip), vehicle: saline with Tween-80
[2] = endpoint: mean survival time, dose: 100.0 mg/kg/injection, schedule: Q04DX003 (ip), vehicle: saline with Tween-80
[3] = endpoint: mean survival time, dose: 200.0 mg/kg/injection, schedule: Q01DX009 (ip), vehicle: saline with Tween-80
[4] = endpoint: mean survival time, dose: 200.0 mg/kg/injection, schedule: Q04DX003 (ip), vehicle: saline with Tween-80
[5] = endpoint: mean survival time, dose: 400.0 mg/kg/injection, schedule: Q01DX009 (ip), vehicle: saline with Tween-80
[6] = endpoint: mean survival time, dose: 400.0 mg/kg/injection, schedule: Q04DX003 (ip), vehicle: saline with Tween-80
[7] = endpoint: mean survival time, dose: 25.0 mg/kg/injection, schedule: Q04DX003 (ip), vehicle: saline
[8] = endpoint: mean survival time, dose: 100.0 mg/kg/injection, schedule: Q01DX001 (ip), vehicle: saline
[9] = endpoint: mean survival time, dose: 50.0 mg/kg/injection, schedule: Q01DX009 (ip), vehicle: saline
[10] = endpoint: mean survival time, dose: 100.0 mg/kg/injection, schedule: Q01DX009 (ip), vehicle: saline
[11] = endpoint: mean survival time, dose: 100.0 mg/kg/injection, schedule: Q04DX003 (ip), vehicle: saline
[12] = endpoint: mean survival time, dose: 25.0 mg/kg/injection, schedule: Q01DX009 (ip), vehicle: saline with Tween-80
[13] = endpoint: mean survival time, dose: 50.0 mg/kg/injection, schedule: Q01DX009 (ip), vehicle: saline with Tween-80

## CCNC(=O)[B-][N+](C)(C)C
endpoint: median survival time, dose: 12.5 mg/kg/injection, schedule: Q01DX009 (ip), vehicle: Klucel (hydroxypropylcellulose) (HPC)
  T/C: 108 % of control
endpoint: median survival time, dose: 25.0 mg/kg/injection, schedule: Q01DX009 (ip), vehicle: Klucel (hydroxypropylcellulose) (HPC)
  T/C: 106 % of control
endpoint: median survival time, dose: 50.0 mg/kg/injection, schedule: Q01DX009 (ip), vehicle: Klucel (hydroxypropylcellulose) (HPC)
  T/C: 106 % of control
endpoint: median survival time, dose: 100.0 mg/kg/injection, schedule: Q01DX009 (ip), vehicle: Klucel (hydroxypropylcellulose) (HPC)
  T/C: 107 % of control
endpoint: median survival time, dose: 200.0 mg/kg/injection, schedule: Q01DX009 (ip), vehicle: Klucel (hydroxypropylcellulose) (HPC)
  T/C: 106 % of control

## FC(F)(F)Cc1ccccc1
endpoint: mean survival time, dose: 100.0 mg/kg/injection, schedule: Q01DX001 (ip), vehicle: saline with Tween-80
  T/C: 103 % of control
endpoint: mean survival time, dose: 200.0 mg/kg/injection, schedule: Q01DX001 (ip), vehicle: saline with Tween-80
  T/C: 108 % of control
endpoint: mean survival time, dose: 400.0 mg/kg/injection, schedule: Q01DX001 (ip), vehicle: saline with Tween-80
  T/C: 105 % of control

## CC1(C)N=C(N)N=C(N)N1c1cccc(C(C#N)CCCc2ccccc2)c1 (centres undefined)
endpoint: mean survival time, dose: 12.5 mg/kg/injection, schedule: Q01DX009 (ip), vehicle: Klucel (hydroxypropylcellulose) (HPC)
  T/C: 104 % of control
endpoint: mean survival time, dose: 25.0 mg/kg/injection, schedule: Q01DX009 (ip), vehicle: Klucel (hydroxypropylcellulose) (HPC)
  T/C: 104 % of control
endpoint: mean survival time, dose: 50.0 mg/kg/injection, schedule: Q01DX009 (ip), vehicle: Klucel (hydroxypropylcellulose) (HPC)
  T/C: 88 % of control

## C=C(OP(=O)(OC)OC)Sc1ccccc1C
endpoint: median survival time, dose: 0.38 mg/kg/injection, schedule: Q01DX009 (ip), vehicle: Klucel (hydroxypropylcellulose) (HPC)
  T/C: 101 % of control
endpoint: median survival time, dose: 0.75 mg/kg/injection, schedule: Q01DX009 (ip), vehicle: Klucel (hydroxypropylcellulose) (HPC)
  T/C: 101 % of control

## Cc1cccc(C)c1NC(=O)c1cccc(Cl)c1
[1]
  T/C: 94 % of control
[2]
  T/C: 98 % of control
[3]
  T/C: 98 % of control
[4]
  T/C: 96 % of control
[5]
  T/C: 94 % of control
[6]
  T/C: 98 % of control

## O=C(CCl)c1ccc(O)c(O)c1
endpoint: mean survival time, dose: 6.25 mg/kg/injection, schedule: Q04DX003 (ip), vehicle: saline
  T/C: 94 % of control
endpoint: mean survival time, dose: 12.5 mg/kg/injection, schedule: Q04DX003 (ip), vehicle: saline
  T/C: 92 % of control
[7]
  T/C: 92 % of control

## NNC(=O)c1cccc([N+](=O)[O-])c1
endpoint: mean survival time, dose: 75.0 mg/kg/injection, schedule: Q01DX001 (ip), vehicle: saline
  T/C: 109 % of control

## CCC(N)C(O)C(C)C (centres undefined)
[8]
  T/C: 105 % of control
endpoint: mean survival time, dose: 200.0 mg/kg/injection, schedule: Q01DX001 (ip), vehicle: saline
  T/C: 90 % of control
endpoint: mean survival time, dose: 400.0 mg/kg/injection, schedule: Q01DX001 (ip), vehicle: saline
  T/C: 96 % of control

## c1ccc(COCCOCc2ccccc2)cc1
[2]
  T/C: 96 % of control
[4]
  T/C: 97 % of control
[6]
  T/C: 108 % of control

## O=Nc1ccc(NO)c2ccccc12
[9]
  T/C: 98 % of control
[10]
  T/C: 102 % of control
endpoint: mean survival time, dose: 200.0 mg/kg/injection, schedule: Q01DX009 (ip), vehicle: saline
  T/C: 102 % of control

## COc1ccc(C(=O)NCCc2ccc(OC)c(OC)c2)cc1O
endpoint: mean survival time, dose: 12.5 mg/kg/injection, schedule: Q01DX009 (ip), vehicle: other
  T/C: 100 % of control
endpoint: mean survival time, dose: 25.0 mg/kg/injection, schedule: Q01DX009 (ip), vehicle: other
  T/C: 94 % of control
endpoint: mean survival time, dose: 50.0 mg/kg/injection, schedule: Q01DX009 (ip), vehicle: other
  T/C: 96 % of control
endpoint: mean survival time, dose: 100.0 mg/kg/injection, schedule: Q01DX009 (ip), vehicle: other
  T/C: 90 % of control
endpoint: mean survival time, dose: 200.0 mg/kg/injection, schedule: Q01DX009 (ip), vehicle: other
  T/C: 96 % of control

## CC1(C)C2CC=C(CCN=[N+]=[N-])C1C2 (centres undefined)
endpoint: mean survival time, dose: 50.0 mg/kg/injection, schedule: Q01DX009 (ip), vehicle: saline sonified
  T/C: 97 % of control
endpoint: mean survival time, dose: 100.0 mg/kg/injection, schedule: Q01DX009 (ip), vehicle: saline sonified
  T/C: 97 % of control
[2]
  T/C: 105 % of control
endpoint: mean survival time, dose: 200.0 mg/kg/injection, schedule: Q01DX009 (ip), vehicle: saline sonified
  T/C: 95 % of control
[4]
  T/C: 97 % of control

## CCOC(=O)CCN(C)C
[11]
  T/C: 97 % of control
endpoint: mean survival time, dose: 200.0 mg/kg/injection, schedule: Q04DX003 (ip), vehicle: saline
  T/C: 100 % of control
endpoint: mean survival time, dose: 400.0 mg/kg/injection, schedule: Q04DX003 (ip), vehicle: saline
  T/C: 100 % of control

## CN(CC1CCCC1)C1CCCCC1
[8]
  T/C: 98 % of control

## CC(=O)Nc1ccc(/C=N/NC(=O)COc2ccccc2)cc1
[1]
  T/C: 97 % of control
[3]
  T/C: 94 % of control
[5]
  T/C: 94 % of control

## C=CC1CC[N-]CC1.C=CC1CC[N-]CC1.C=CC1CC[N-]CC1.[Cl][Cr]([Cl])[Cl]
[11]
  T/C: 102 % of control

## CC(=O)n1cc(F)c(=O)[nH]c1=O
endpoint: mean survival time, dose: 16.5 mg/kg/injection, schedule: Q01DX009 (ip), vehicle: saline
  T/C: 172 % of control
[12]
  T/C: 169 % of control
[13]
  T/C: 105 % of control

## COC(=O)N1C=Cc2ccccc2C1C#N (centres undefined)
endpoint: mean survival time, dose: 25.0 mg/kg/injection, schedule: Q01DX009 (ip), vehicle: saline
  T/C: 89 % of control
[9]
  T/C: 98 % of control
[10]
  T/C: 88 % of control

## OC1c2ccccc2CC1N1CCCCC1 (centres undefined)
[12]
  T/C: 95 % of control
[13]
  T/C: 101 % of control
[1]
  T/C: 98 % of control

## CC(C)CC1(C(C)C)C(=O)NC(=S)NC1=O
endpoint: mean survival time, dose: 5.0 mg/kg/injection, schedule: Q01DX001 (ip), vehicle: saline
  T/C: 102 % of control
endpoint: mean survival time, dose: 10.0 mg/kg/injection, schedule: Q01DX001 (ip), vehicle: saline
  T/C: 96 % of control
endpoint: mean survival time, dose: 20.0 mg/kg/injection, schedule: Q01DX001 (ip), vehicle: saline
  T/C: 98 % of control
endpoint: mean survival time, dose: 40.0 mg/kg/injection, schedule: Q01DX001 (ip), vehicle: saline
  T/C: 101 % of control

## O=S(=O)(Nc1ccc(O)cc1)c1ccccc1
[1]
  T/C: 103 % of control
[2]
  T/C: 101 % of control
[3]
  T/C: 95 % of control
[4]
  T/C: 103 % of control
[5]
  T/C: 95 % of control
[6]
  T/C: 107 % of control

## COc1ccc(OC)c(CCN)c1
endpoint: mean survival time, dose: 12.5 mg/kg/injection, schedule: Q01DX009 (ip), vehicle: saline with Tween-80
  T/C: 101 % of control
[12]
  T/C: 102 % of control
endpoint: mean survival time, dose: 25.0 mg/kg/injection, schedule: Q04DX003 (ip), vehicle: saline with Tween-80
  T/C: 100 % of control
[13]
  T/C: 93 % of control
endpoint: mean survival time, dose: 50.0 mg/kg/injection, schedule: Q04DX003 (ip), vehicle: saline with Tween-80
  T/C: 97 % of control
[2]
  T/C: 108 % of control

## COc1cc2c(c3ccccc13)CCCC2=O
[1]
  T/C: 95 % of control
[3]
  T/C: 92 % of control
[5]
  T/C: 97 % of control

## O=S(=O)(O)O.[NH-]CC1(C[NH-])CCCCC1.[Pt+2]
[7]
  T/C: 96 % of control
endpoint: median survival time, dose: 15.98 mg/kg/injection, schedule: Q04DX003 (ip), vehicle: dextrose
  T/C: 108 % of control
endpoint: median survival time, dose: 18.0 mg/kg/injection, schedule: Q04DX003 (ip), vehicle: dextrose
  T/C: 93 % of control
endpoint: median survival time, dose: 24.0 mg/kg/injection, schedule: Q04DX003 (ip), vehicle: dextrose
  T/C: 105 % of control

## N=C1N(c2ccccc2)CCN1c1ccccc1
endpoint: mean survival time, dose: 6.25 mg/kg/injection, schedule: Q04DX003 (ip), vehicle: saline with Tween-80
  T/C: 94 % of control
endpoint: mean survival time, dose: 12.5 mg/kg/injection, schedule: Q04DX003 (ip), vehicle: saline with Tween-80
  T/C: 92 % of control

## NC1CCCCC1N.O=C([O-])c1ccc(N=Nc2cccc([N+](=O)[O-])c2)cc1[O-].[Pt+4]
endpoint: median survival time, dose: 3.12 mg/kg/injection, schedule: Q04DX003 (ip), vehicle: saline with Tween-80
  T/C: 105 % of control and 109 % of control
endpoint: median survival time, dose: 6.25 mg/kg/injection, schedule: Q04DX003 (ip), vehicle: saline with Tween-80
  T/C: 102 % of control and 110 % of control
endpoint: median survival time, dose: 12.5 mg/kg/injection, schedule: Q04DX003 (ip), vehicle: saline with Tween-80
  T/C: 113 % of control
endpoint: median survival time, dose: 25.0 mg/kg/injection, schedule: Q04DX003 (ip), vehicle: saline with Tween-80
  T/C: 116 % of control and 123 % of control
endpoint: median survival time, dose: 50.0 mg/kg/injection, schedule: Q04DX003 (ip), vehicle: saline with Tween-80
  T/C: 123 % of control
endpoint: median survival time, dose: 100.0 mg/kg/injection, schedule: Q04DX003 (ip), vehicle: saline with Tween-80
  T/C: 156 % of control
endpoint: median survival time, dose: 200.0 mg/kg/injection, schedule: Q04DX003 (ip), vehicle: saline with Tween-80
  T/C: 166 % of control and 313 % of control

## CSc1ncnc2c1C[P+](Cc1ccccc1)(c1ccccc1)CC2 (centres undefined)
endpoint: mean survival time, dose: 25.0 mg/kg/injection, schedule: Q04DX002 (ip), vehicle: saline with Tween-80
  T/C: 101 % of control
endpoint: mean survival time, dose: 50.0 mg/kg/injection, schedule: Q04DX002 (ip), vehicle: saline with Tween-80
  T/C: 101 % of control
endpoint: mean survival time, dose: 100.0 mg/kg/injection, schedule: Q04DX002 (ip), vehicle: saline with Tween-80
  T/C: 101 % of control
